According to PubChem BioAssay AID1918993 (Molecular Pharmacology Branch, DTP, NCI, 2023):

Tested on: 233499-124-R-J3-PDC complex spheroid growth
Test: Anticancer human tumor 233499-124-R-J3-PDC patient-derived colon adenocarcinoma cell line growth inhibition [AhR]
Details: for IC50: curve of first compound; for viability, T/C: stronger effect = lower value; active = viability on the fitted dose curve at most 10% of control; inactive = the rest
From the text: Multicellular complex tumor spheroid response to aryl hydrocarbon receptor antagonists in combination with a variety of drugs and investigational agents in selected tumor cell lines
The current study was undertaken to assess response to aryl hydrocarbon receptor antagonists in combination with standard-of-care drugs and investigational agents in solid tumor complex spheroid models. Complex spheroids include a stromal component modeled by human endothelial cells (HUVEC) and fibroblasts modeled by human mesenchymal stem cells (MSCs). The concentration ranges selected for each drug and investigational agent were based upon clinically achievable concentrations if the clinical Cmax of the agent was known.
Compounds. The drugs and investigational agents: BAY 2416964 (NSC825713), GNF351 (NSC835774), CH-223191 (NSC835775), CPI-455 (NSC825282), aza-TdCyd (NSC777586), decitabine (NSC127716), belinostat (NSC758774), entinostat (NSC756642), pevonedistat (NSC761192), tazemetostat (NSC777109), talazoparib (NSC765396), olaparib (NSC753686), selinexor (NSC780203), nedisertib (M3814, NSC802822), bortezomib (NSC756655), venetoclax (NSC766270), doxorubicin (NSC123127), elimusertib (BAY189344, NSC800525), ceralasertib (AZD6738, NSC777638), TAK-243 (NSC785004), alisertib (NSC759677), etoposide (NSC141540), topotecan (NSC609699), eribulin (NSC707389), gemcitabine (NSC613327), carboplatin (NSC241240), cisplatin (NSC119875), and SN-38 (NSC673596) were obtained from the National Cancer Institute (NCI) Developmental Therapeutics Program Chemical Repository (32). The FDA-approved anticancer drug set is available from the Developmental Therapeutics Program at https://dtp.cancer.gov/organization/dscb/obtaining/available plates.htm. […] The stock solutions were prepared in dimethyl sulfoxide (DMSO, Sigma-Aldrich, St. Louis, MO, cat. D2650), except for the platinum compounds which were prepared in saline (Quality Biological, Gaithersburg, MD, cat. 114-055-101), at 800-fold the tested concentration and stored at -70 degrees C prior to their use. All drugs and investigational agents were tested over a range starting from a high concentration at or near the clinical Cmax and decreasing in half-log increments. If the clinical Cmax for an agent had not been determined, the highest concentration tested was 10 microM (Table 1).
Cell Culture. All cells were maintained in an incubator at 37 degrees C and 5% CO2 with 95% humidity. The PDC lines were cultured according to standard operating procedures established by the NCI PDMR (https://pdmr.cancer.gov). Briefly, all PDCs were thawed and cultured in Matrigel-coated flasks prepared with a working solution of 1X Ham's F-12 nutrient mix, without supplementation (Invitrogen, Waltham, MA, cat. 11765054), 100 U/mL penicillin-streptomycin (Invitrogen, cat. 15140122), and 2.5% Matrigel (Corning Inc., Corning, NY, cat. 354248) for the first three passages. All PDCs were cultured in complete DMEM/F-12 media containing advanced DMEM/F-12 (Invitrogen, cat. 12634028), 4.9% defined fetal bovine serum, heat inactivated (HyClone Laboratories Inc., Logan, UT, cat. SH30070.03HI), 389 ng/mL hydrocortisone (Sigma-Aldrich, cat. H4001), 9.7 ng/mL human EGF recombinant protein (Invitrogen, cat. PHG0313), 23.4 microg/mL adenine (Sigma-Aldrich, cat. A2786), 97.3 U/mL penicillin-streptomycin (Invitrogen, cat. 15140122), 1.9 mM L-glutamine (Invitrogen, cat. 25030081), and 9.7 microM Y-27632 dihydrochloride (Tocris Bioscience, Bristol, United Kingdom, cat. 1254). The PDCs were cultured in complete DMEM/F12 media without 10 microM Y-27632 dihydrochloride for at least two passages prior to the screen. The established cell lines NCI-H1341 and […] were cultured in DMEM/F-12, HEPES (Invitrogen, cat. 11330032), 5% defined fetal bovine serum (HyClone Laboratories Inc., cat. SH30070.03), ITS premix universal culture supplement [insulin (5 microg/mL), transferrin (5 microg/mL), and selenious acid (5 ng/mL)] […]

[1] = second compound 0.1 µM, first compound 0.0316 µM
[2] = second compound 0.1 µM, first compound 0.1 µM
[3] = second compound 0.1 µM, first compound 0.316 µM
[4] = second compound 0.1 µM, first compound 1 µM
[5] = second compound 0.1 µM, first compound 3.16 µM
[6] = second compound 0.1 µM, first compound 10 µM
[7] = second compound 0.316 µM, first compound 0.0316 µM
[8] = second compound 0.316 µM, first compound 0.1 µM
[9] = second compound 0.316 µM, first compound 0.316 µM
[10] = second compound 0.316 µM, first compound 1 µM
[11] = second compound 0.316 µM, first compound 3.16 µM
[12] = second compound 0.316 µM, first compound 10 µM
[13] = second compound 1 µM, first compound 0.0316 µM
[14] = second compound 1 µM, first compound 0.1 µM
[15] = second compound 1 µM, first compound 0.316 µM
[16] = second compound 1 µM, first compound 1 µM
[17] = second compound 1 µM, first compound 3.16 µM
[18] = second compound 1 µM, first compound 10 µM
[19] = second compound 3.16 µM, first compound 0.0316 µM
[20] = second compound 3.16 µM, first compound 0.1 µM
[21] = second compound 3.16 µM, first compound 0.316 µM
[22] = second compound 3.16 µM, first compound 1 µM
[23] = second compound 3.16 µM, first compound 3.16 µM
[24] = second compound 3.16 µM, first compound 10 µM
[25] = second compound 10 µM, first compound 0.0316 µM
[26] = second compound 10 µM, first compound 0.1 µM
[27] = second compound 10 µM, first compound 0.316 µM
[28] = second compound 10 µM, first compound 1 µM
[29] = second compound 10 µM, first compound 3.16 µM
[30] = second compound 10 µM, first compound 10 µM
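Note: spheroids exposed to agents for seven days before reading.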

CCc1c2c(nc3ccc(O)cc13)-c1cc3c(c(=O)n1C2)COC(=O)[C@]3(O)CC + Cc1ccccc1N=Nc1ccc(NC(=O)c2ccnn2C)c(C)c1
> 300 nM: IC50 (second compound 0.1 µM) | IC50 (second compound 0.316 µM) | IC50 (second compound 1 µM) | IC50 (second compound 3.16 µM) | IC50 (second compound 10 µM)
inactive: viability, T/C (second compound 0.1 µM, first compound 0.000949 µM) 95.3% | viability, T/C (second compound 0.1 µM, first compound 0.003 µM) 103% | viability, T/C (second compound 0.1 µM, first compound 0.00949 µM) 102% | viability, T/C (second compound 0.1 µM, first compound 0.03 µM) 81.8% | viability, T/C (second compound 0.1 µM, first compound 0.0949 µM) 90.4% | viability, T/C (second compound 0.1 µM, first compound 0.3 µM) 76.6% | viability, T/C (second compound 0.316 µM, first compound 0.000949 µM) 87.6% | viability, T/C (second compound 0.316 µM, first compound 0.003 µM) 91.4% | viability, T/C (second compound 0.316 µM, first compound 0.00949 µM) 88.5% | viability, T/C (second compound 0.316 µM, first compound 0.03 µM) 75.4% | viability, T/C (second compound 0.316 µM, first compound 0.0949 µM) 77.8% | viability, T/C (second compound 0.316 µM, first compound 0.3 µM) 88% | viability, T/C (second compound 1 µM, first compound 0.000949 µM) 105% | viability, T/C (second compound 1 µM, first compound 0.003 µM) 113% | viability, T/C (second compound 1 µM, first compound 0.00949 µM) 102% | viability, T/C (second compound 1 µM, first compound 0.03 µM) 78.3% | viability, T/C (second compound 1 µM, first compound 0.0949 µM) 84.5% | viability, T/C (second compound 1 µM, first compound 0.3 µM) 86.2% | viability, T/C (second compound 3.16 µM, first compound 0.000949 µM) 91.5% | viability, T/C (second compound 3.16 µM, first compound 0.003 µM) 105% | viability, T/C (second compound 3.16 µM, first compound 0.00949 µM) 86.5% | viability, T/C (second compound 3.16 µM, first compound 0.03 µM) 86.9% | viability, T/C (second compound 3.16 µM, first compound 0.0949 µM) 91.8% | viability, T/C (second compound 3.16 µM, first compound 0.3 µM) 73.4% | viability, T/C (second compound 10 µM, first compound 0.000949 µM) 107% | viability, T/C (second compound 10 µM, first compound 0.003 µM) 90.6% | viability, T/C (second compound 10 µM, first compound 0.00949 µM) 104% | viability, T/C (second compound 10 µM, first compound 0.03 µM) 103% | viability, T/C (second compound 10 µM, first compound 0.0949 µM) 106% | viability, T/C (second compound 10 µM, first compound 0.3 µM) 101%

CC(C)c1c(-c2ccccc2)nc2c(C#N)c[nH]n2c1=O + Cc1cncc(-c2nc(NCCc3c[nH]c4ccccc34)c3ncn(C(C)C)c3n2)c1
> 10000 nM: IC50 (second compound 0.1 µM) | IC50 (second compound 0.316 µM) | IC50 (second compound 1 µM) | IC50 (second compound 3.16 µM)
active: viability, T/C [25] 1.69% | viability, T/C [26] 2.34% | viability, T/C [27] 4.08% | viability, T/C [28] 2.26% | viability, T/C [29] 2.36% | viability, T/C [30] 2.85%
< 31.6 nM: IC50 (second compound 10 µM)
inactive: viability, T/C [1] 88.8% | viability, T/C [2] 100% | viability, T/C [3] 96.5% | viability, T/C [4] 108% | viability, T/C [5] 101% | viability, T/C [6] 108% | viability, T/C [7] 89.9% | viability, T/C [8] 88.9% | viability, T/C [9] 87.4% | viability, T/C [10] 86.3% | viability, T/C [11] 86.2% | viability, T/C [12] 85.2% | viability, T/C [13] 84.5% | viability, T/C [14] 79.2% | viability, T/C [15] 71.5% | viability, T/C [16] 73.8% | viability, T/C [17] 79.2% | viability, T/C [18] 84% | viability, T/C [19] 72.5% | viability, T/C [20] 86.5% | viability, T/C [21] 74.6% | viability, T/C [22] 60.9% | viability, T/C [23] 73.3% | viability, T/C [24] 77.2%

Nc1ccn(C2OC(CO)C(O)C2(F)F)c(=O)n1 (stereo not given) + Cc1cncc(-c2nc(NCCc3c[nH]c4ccccc34)c3ncn(C(C)C)c3n2)c1
2970 nM: IC50 (second compound 3.16 µM)
768 nM: IC50 (second compound 0.316 µM)
1780 nM: IC50 (second compound 0.1 µM)
inactive: viability, T/C [1] 95.4% | viability, T/C [2] 72% | viability, T/C [3] 71.8% | viability, T/C [4] 50.5% | viability, T/C [5] 41.4% | viability, T/C [6] 47.2% | viability, T/C [7] 76.5% | viability, T/C [8] 82.7% | viability, T/C [9] 68% | viability, T/C [10] 45.4% | viability, T/C [11] 40.1% | viability, T/C [12] 45.9% | viability, T/C [13] 84.8% | viability, T/C [14] 81.7% | viability, T/C [15] 64% | viability, T/C [16] 57.6% | viability, T/C [17] 43.9% | viability, T/C [18] 61.9% | viability, T/C [19] 74.5% | viability, T/C [20] 75.2% | viability, T/C [21] 69.2% | viability, T/C [22] 60.1% | viability, T/C [23] 38.6% | viability, T/C [24] 60.2% | viability, T/C [25] 52.6% | viability, T/C [26] 44.9% | viability, T/C [27] 56% | viability, T/C [28] 47.3% | viability, T/C [29] 53% | viability, T/C [30] 51.9%
> 10000 nM: IC50 (second compound 1 µM) | IC50 (second compound 10 µM)
